In PMC7536232, “Saturation transfer difference NMR on the integral trimeric membrane transport protein GltPh determines cooperative substrate binding” (Scientific Reports, 2020):

Molecular target: T1, GltPh (Pyrococcus horikoshii, UniProt O59010)
T1 construct: gene PH1295; WT GltPh, homotrimer, detergent-solubilised (DDM)
T1 sequence (O59010 1-425): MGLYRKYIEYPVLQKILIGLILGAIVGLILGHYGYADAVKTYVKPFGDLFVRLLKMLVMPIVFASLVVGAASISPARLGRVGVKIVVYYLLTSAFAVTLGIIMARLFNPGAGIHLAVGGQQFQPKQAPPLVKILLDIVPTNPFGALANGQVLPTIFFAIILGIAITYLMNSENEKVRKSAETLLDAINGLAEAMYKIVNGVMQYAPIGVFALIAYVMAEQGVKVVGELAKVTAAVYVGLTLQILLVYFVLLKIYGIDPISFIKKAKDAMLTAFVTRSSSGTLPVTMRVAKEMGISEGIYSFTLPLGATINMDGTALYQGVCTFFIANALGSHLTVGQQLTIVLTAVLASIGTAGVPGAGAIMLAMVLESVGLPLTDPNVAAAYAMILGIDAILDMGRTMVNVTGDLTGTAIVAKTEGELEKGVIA
Assay: STD NMR titration, γ-protons; DDM micelles ([…] in proteoliposomes)
Type: binding

N[C@@H](CCC(=O)O)C(=O)O [L-glutamate]
Kd: 414 µM
